Earlier results, collected in patent publication US20100322892A1, “PESTICIDE COMPOSITIONS AND APPLICATORS” (BASF CORPORATION, priority 2009, published 2010).

What was measured:
[1] = system: termites; conditions: in vivo
[2] = system: ants; conditions: in vivo

## N#Cc1nn(-c2c(Cl)cc(C(F)(F)F)cc2Cl)c(N)c1[S+]([O-])C(F)(F)F (racemic) [fipronil, (±)-5-amino-1-(2,6-dichloro-α,α,α-trifluoro-p-tolyl)-4-trifluoromethylsulfinylpyrazole-3-carbonitrile]
[1]
  Dose toxic to termites: 2 nanograms per termite
[2]
  Dose toxic to ants: about 1 nanogram per ant
